Measurements as given in ChEMBL document CHEMBL1255212, “Synthesis and antiviral evaluation of α-D-2',3'-didehydro-2',3'-dideoxy-3'-C-hydroxymethyl nucleosides” (Bioorg Med Chem Lett, 2010).
Converted amounts (≈) assume the structure as drawn. The source made the active and inactive calls. No cut-off for these calls is given here.

Columns and labels:
Assay type in all cases: functional, organism-based
Human alphaherpesvirus 2 = assay: Antiviral activity against HSV2
[1] = tested on: Human immunodeficiency virus 1; assay: Antiviral activity against HIV1
Human betaherpesvirus 5 = assay: Antiviral activity against HCMV
Human alphaherpesvirus 1 = assay: Antiviral activity against HSV1

EC50 (Human alphaherpesvirus 1) [µg/mL] | Structure (SMILES) | Activity (Human alphaherpesvirus 2) | Activity [1] | Activity (Human betaherpesvirus 5) | Activity (Human alphaherpesvirus 1)
– | Nc1ncnc2c1ncn2[C@@H]1C=C(CO)[C@@H](CO)O1 | inactive | inactive | inactive | inactive
– | NC1C=CN([C@@H]2C=C(CO)[C@@H](CO)O2)C(=O)N1 (some centres not stated) | inactive | inactive | inactive | inactive
33 (≈ 130 µM) | Cc1cn([C@@H]2C=C(CO)[C@@H](CO)O2)c(=O)[nH]c1=O | inactive | inactive | inactive | –
